Measured values published in article PMC8783508, “A novel D-amino acid peptide with therapeutic potential (ISAD1) inhibits aggregation of neurotoxic disease-relevant mutant Tau and prevents Tau toxicity in vitro” (Alzheimer's Research & Therapy, 2022).
Non-standard residues stand in square brackets, D forms with d. Residues, ends and D or L forms follow the SMILES beside them.

Tests used:
Tau^RDΔK = target: T1, Tau^RDΔK (Homo sapiens, UniProt P10636, DEL597-597); test: Pelleting assay and western blot, Tau^RDΔK; type: biochemical; conditions: 10 μM Tau, 100 μM peptide, 24 h, 61,000 rpm 60 min, K9JA western blot
T1 construct: Tau^RDΔK Pro-aggregant repeat domain Tau mutant ΔK280; made in house
T1 sequence (P10636 with tags, fused parts or gaps DEL597-597): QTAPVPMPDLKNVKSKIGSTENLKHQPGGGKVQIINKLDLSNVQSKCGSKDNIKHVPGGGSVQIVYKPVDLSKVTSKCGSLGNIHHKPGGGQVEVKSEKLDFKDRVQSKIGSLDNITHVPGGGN
Procedure: After the ThS assay (end time point, 24 h), 70 μl of each sample (pooled together from 2 wells) was centrifuged in a Beckmann coulter (Optima Max Ultra Centrifuge, TLA 100.3 rotor) at 61,000 rpm for 60 min at 4 °C. After centrifugation, the supernatant was separated from the pellet. Then, the pellet was dissolved in BES buffer in an equal volume as the supernatant. For the following western blot, 12-μl samples were mixed with 3-μl SDS-sample buffer (5x), heated for 5 min at 95 °C, and loaded onto a 8–16% SDS tris-glycine-gel (BioRad, Feldkirchen, Germany). The proteins were transferred to a polyvinylidene fluoride (PVDF) membrane. After the transfer, the membrane was blocked in 5% non-fat dry milk. After washing the membrane three times for 10 min with TBST, the primary pan-Tau K9JA antibody (1:5000; Agilent, Waldbronn, Germany) was incubated for 1 h at RT with gentle agitation, followed by again 3-times washing with TBST. For detection on western blot, the secondary antibody (goat anti-rabbit HRP, Agilent, Waldbronn, Germany) was incubated in a 1:2000 dilution for 1 h at RT with shaking. […] The quantification of intensities was performed using ImageJ.

[1] = DLS of D-peptides alone with heparin; type: physicochemical; conditions: 100 μM D-peptide, 2.5 µM heparin 16000, 24 hours
Procedure: After the ThS assay (end time point, 24 h), the samples were used for DLS measurements. Twenty microliters of the sample was placed in a quartz batch cuvette (ZEN2112) and the measurement was performed at 25 °C in a Zetasizer Nano S instrument (Malvern Instruments, Herrenberg, Germany). The sample was thermally equilibrated at 25 °C for 2 min. The mean value of the intensities of an individual sample was determined over 3 measurements with 15 runs each. Analysis and averaging of the collected data were performed with the Zetasizer software 7.11 (Malvern Instruments, Herrenberg, Germany) and the result is represented as a volume graph. Tau^RDΔK fibrils (Tau+heparin) formed in the absence of D-peptides was used as a positive control.
100 μM of D-peptides and 2.5 µM of heparin 16000 (H16K) were incubated together for 24 hours and measured by DLS.

Tau^FL-A152T = target: T2, Tau^FL-A152T (Homo sapiens, UniProt P10636, A469T); test: Fibrillization of Tau^FL-A152T monitored by ThS assay; type: biochemical; conditions: Tau:peptide = 1:1; 1:5; 1:10
T2 construct: Tau^FL-A152T Full-length Tau mutant A152T
T2 sequence (P10636 1-441 isoform P10636-8 A152T): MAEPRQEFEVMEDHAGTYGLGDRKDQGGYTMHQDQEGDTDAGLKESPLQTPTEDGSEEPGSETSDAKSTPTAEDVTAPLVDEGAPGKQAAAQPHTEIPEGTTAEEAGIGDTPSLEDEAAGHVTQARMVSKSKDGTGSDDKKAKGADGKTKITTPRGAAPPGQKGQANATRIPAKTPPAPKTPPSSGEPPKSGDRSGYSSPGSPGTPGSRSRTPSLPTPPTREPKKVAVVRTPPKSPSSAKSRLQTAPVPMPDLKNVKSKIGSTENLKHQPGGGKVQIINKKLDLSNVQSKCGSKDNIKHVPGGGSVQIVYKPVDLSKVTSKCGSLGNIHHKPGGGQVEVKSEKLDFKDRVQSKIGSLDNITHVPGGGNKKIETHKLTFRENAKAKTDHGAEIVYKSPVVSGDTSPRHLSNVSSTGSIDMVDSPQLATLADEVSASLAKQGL
Procedure: (§1) For Tau fibrillization inhibition assays, 10 μM Tau mutant protein (Tau^RDΔK, Tau^FLΔK, Tau^FL-A152T, Tau^FL-P301L) was incubated in BES buffer (N,N-bis(2-hydroxyethyl)-2-aminoethanesulfonic acid, pH 7) in the presence of 2.5 μM heparin at 37 °C for 24 h with and without novel D-peptides (ISAD1 and ISAD1rev) at different concentrations (1 nM to 200 μM). Final concentration of 20 μM ThS was used for monitoring fibrillization. The assay was performed with 40-μl sample volume per well in a 384-well microtiter plate (Thermo LabSystems, Dreieich, Germany). The fibrillization of Tau was monitored by ThS and the relative fluorescence intensity of ThS was read out at 440 excitation/521 emission nm in a Tecan micro titer plate reader (Tecan, Männedorf, Switzerland).

N2a-Tau^RDΔK cells [2] = test: LDH release, externally added Tau^RDΔK aggregates; type: cell-based; conditions: 10 μM Tau, 100 μM peptide final, pre-incubated, 24 h on cells, n = 3
Procedure: (§2) N2a cells expressing Tau^RDΔK were plated on poly D-lysine-coated 96-well plates with a density of 25,000 cells/well. At 70 to 80% confluence, the cells were treated for 24 h with various concentrations of D-peptides (25, 50, 100, and 250 μM) or Tau^RDΔK (10 μM final concentration) in the presence of ISAD1 and ISAD1rev (100 μM final concentration). The ability of D-peptides to neutralize the toxicity of Tau^RDΔK oligomers/fibrils was investigated by measuring the amount of released LDH (Roche Diagnostics, Mannheim, Germany). Therefore, 50 μL of each well was transferred to a fresh 96-well plate and 50 μL of reagent was added followed by a 30-min incubation period at RT. Finally, 50 μL of stop solution (1 N HCl) was added and absorbance was recorded at 492 nm (TECAN spectrofluorometer, Männedorf, Switzerland). Absorbance values were corrected by background values and the percentage of LDH release was calculated.

N2a-Tau^RDΔK cells [3] = test: LDH release with the peptides alone; type: cell-based; conditions: 25, 50, 100, 250 μM peptide, 24 h, n = 3
Procedure: as §2

N2a-Tau^RDΔK cells [4] = test: ROS measurement (DCF), externally added Tau^RDΔK aggregates; type: cell-based; conditions: 10 μM Tau, 100 μM peptide final, pre-incubated, 30 min, n = 3
Procedure: Toxic Tau oligomers and fibrils can induce the production of superoxides and peroxy radicals in cells which can be measured with fluorescent dye dichlorodihydrofluorescein (DCF). N2a-Tau^RDΔK cells were plated on D-lysine-coated 96-well plates. At 70 to 80% confluence, the cells were washed once with warm PBS and then incubated with 20 μM of DCF (Abcam, Cambridge, UK) diluted in 1X dilution buffer for 30 min at 37 °C. After 30 min, the cells were washed once with 1X PBS. After washing, the cells were incubated with desired concentrations of different samples (10 μM oligomers/fibrils ± treated with 100 μM D-peptides or controls) for 30 min. The cytotoxic agent TBHP (tert-butylhydroperoxide) was used as the positive control. The fluorescence intensity was measured using a spectrofluorometer (Tecan, Männedorf, Switzerland; excitation at 485 nm and emission at 535 nm).

Tau^FL-P301L = target: T3, Tau^FL-P301L (Homo sapiens, UniProt P10636, P618L); test: Fibrillization of Tau^FL-P301L monitored by ThS assay; type: biochemical; conditions: Tau:peptide = 1:1; 1:5; 1:10
T3 construct: Tau^FL-P301L Full-length Tau mutant P301L
T3 sequence (P10636 1-441 isoform P10636-8 P301L): as the sequence (P10636 1-441 isoform P10636-8 A152T) above, with T152A, P301L counted along it
Procedure: as §1

Tau^FLΔK = target: T4, Tau^FLΔK (Homo sapiens, UniProt P10636, DEL597-597); test: Fibrillization of Tau^FLΔK monitored by ThS assay; type: biochemical; conditions: Tau:peptide = 1:1; 1:5; 1:10
T4 construct: Tau^FLΔK Full-length Tau mutant ΔK280
T4 sequence (P10636 with tags, fused parts or gaps isoform P10636-8 DEL280-280): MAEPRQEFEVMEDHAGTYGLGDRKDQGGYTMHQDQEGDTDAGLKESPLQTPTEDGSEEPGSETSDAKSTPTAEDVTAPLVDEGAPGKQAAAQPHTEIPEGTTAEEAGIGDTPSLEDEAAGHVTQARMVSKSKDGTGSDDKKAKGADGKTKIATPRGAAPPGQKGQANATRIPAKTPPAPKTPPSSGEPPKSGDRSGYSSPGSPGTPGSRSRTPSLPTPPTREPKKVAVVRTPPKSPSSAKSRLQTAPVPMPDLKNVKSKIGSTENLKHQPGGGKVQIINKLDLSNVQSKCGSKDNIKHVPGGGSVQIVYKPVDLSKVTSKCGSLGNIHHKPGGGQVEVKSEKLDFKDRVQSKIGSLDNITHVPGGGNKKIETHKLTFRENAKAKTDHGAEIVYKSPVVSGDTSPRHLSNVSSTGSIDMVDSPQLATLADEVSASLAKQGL
Procedure: as §1

In the case of CC(C)C[C@@H](NC(=O)[C@@H](CO)NC(=O)[C@@H](CC(C)C)NC(=O)[C@H](NC(=O)[C@@H](CC(=O)O)NC(=O)[C@@H](C)NC(=O)[C@@H](C)NC(=O)[C@H](N)CO)[C@H](C)O)C(=O)N[C@H](CCCCN)C(=O)N[C@H](Cc1ccccc1)C(=O)N[C@@H](C(=O)N[C@H](CO)C(=O)O)C(C)C [ISAD1rev] (H-[dS][dA][dA][dD][dT][dL][dS][dL][dK][dF][dV][dS]-OH; N-terminus and C-terminus assumed), the “Distribution of Tau^RDΔK between pellet and supernatant” value (Tau^RDΔK) is reported as “only apparent in the pellet”, the “Particle size of peptide alone in the presence of heparin (DLS)” value [1] is reported as less than 2 nm and the “Inhibition of Tau^FL-A152T fibrillization, in words” value (Tau^FL-A152T) is reported as “weak inhibitory effects”. For the same compound, the “Effect on toxicity of Tau aggregates, LDH release” value (N2a-Tau^RDΔK cells [2]) was “Low LDH release levels”, the “Cytotoxicity, LDH release” value (N2a-Tau^RDΔK cells [3]) was “do not induce toxic effects” and the “Effect on toxicity of Tau aggregates, ROS level” value (N2a-Tau^RDΔK cells [4]) was “reducing intracellular ROS levels”. The “Inhibition of Tau^FL-P301L fibrillization, in words” value (Tau^FL-P301L) was “weak inhibitory effects” and the “Inhibition of Tau^FLΔK fibrillization, in words” value (Tau^FLΔK) was “weak inhibitory effects”.
